Assay results from patent US20080318909A1, “Use Of Linoleic Compounds Against Heart Failure” (priority 2007, published 2008).

Key:
SHHF rats = assay: Long-term diet study in SHHF rats (fifteen to twenty-one months of age); assay type: in vivo, rat
Procedure: Experiments were performed to determine whether the amount of (18:2)4CL in vivo may be altered with diet and, if so, whether this capability may be used to influence the time course of heart failure in SHHF rats. The two diets studied were a linoleic acid-rich safflower oil diet and a diet supplemented with lard.
Lean male SHHF rats aged eight weeks and fifteen months were used in the studies. […] The progression toward heart failure in SHHF rats shares a wide variety of marked similarities to the progression toward heart failure in humans.
To study the normal timecourse of HF, male SHHF rats were placed on special diets for six months, from fifteen to twenty-one months of age. This timecourse was chosen, because fifteen months is the time when SHHF rats start to progress from hypertension to HF. By twenty-one months most controls should be showing signs of overt HF.

PPARβ = assay: PPAR binding in LVs of twenty month old SHHF rats on linoleic acid supplement; assay type: in vivo, rat; settings: FIG. 13
Excerpt: Peroxisome Proliferator-Activated Receptors: Peroxisome proliferator-activated receptors (PPARs) are a family of nuclear transcription factors comprised of PPARα, PPARγ, and PPARβ (also called PPARδ). […] Alteration in PPAR isoform levels results in CL changes, and it is well established that the natural activator for PPARs are polyunsaturated fatty acids, such as 18:2. […] PPARβ is currently believed to be the most pharmacologically promising of the three isoforms. Linoleic acid supplementation results in an increase in PPARβ binding, FIG. 13.

[1] = system: fibroblasts from Barth Syndrome patients; settings: fibroblasts supplemented with 18:2; cited from earlier work
TAB rats = assay: SC-26196 fed in chow to TAB rats with induced heart failure; assay type: in vivo, rat
Excerpt: Δ5 Desaturase and Δ6 Desaturase: Δ6 desaturase mRNA increases with heart failure in SHHF rats (FIG. 11). The Δ5 desaturase and Δ6 desaturase inhibitor SC-26196 (Pfizer) was fed to TAB rats in which heart failure was induced three weeks after TAB. The rats were allowed to reach a pre-failure state for a week and then the drug, SC-26196, was given in the chow for two weeks. […] Use of the Δ5 desaturase and Δ6 desaturase inhibitor, SC-26196, improved the heart function of SHHF rats and caused an increase in linoleic acid and a decrease in arachidonic acid levels in the heart.
Rapid induction of HF was studied using eight week old male SHHF rats maintained on a control (Purina 5001) diet since weaning from their mothers. Rapid HF is induced by transaortic banding (TAB) accompanied by a high salt diet for four weeks (TAB/HS). Rats are used for experiments four weeks following TAB/HS treatment.

SMILES | left ventricular dimension (SHHF rats; 18:2 supplementation) | systolic function (SHHF rats; 18:2 supplementation) | survivability / survival of SHHF rats (SHHF rats; compared to lard supplemented or standard chow diets, FIG. 7) | PPARβ binding (PPARβ) | amount of (18:2)4CL [1] | arachidonic acid levels in the heart (TAB rats; SHHF rats) | linoleic acid levels in the heart (TAB rats; SHHF rats) | survivability of SHHF rats (TAB rats; given in the chow) | production of arachidonic acid from linoleic acid (TAB rats; given in the chow for two weeks) | cardiac function (fractional shortening) (TAB rats; given in the chow for two weeks, FIG. 12A) | level of (18:2)4CL (TAB rats; given in the chow for two weeks, FIG. 12B)
CCCCC/C=C\C/C=C\CCCCCCCC(=O)O [Linoleic acid, linoleic acid] | Trends for improvement | Trends for improvement | significant increase | increase | increased |  |  |  |  |  | 
N#CC(CCCN1CCN(/N=C/c2cccnc2)CC1)(c1ccccc1)c1ccccc1 [SC-26196] |  |  |  |  |  | decrease | increase | improved | effectively blocked | improved | increased
